We go through 11 molecules from PubChem BioAssay (NCI).

Each structure is given as a SMILES string. “And” between values parts separate entries of the source, which are not always exact repeats. Identical values can stand only once.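 Growth conditions: 96-well plates. Treatment: test compound, 48 hours, 5 concentrations. Analysis: linear interpolation between bracketing concentrations; unreached endpoints set to highest concentration. GI50: concentration for 50% inhibition of growth. At the TGI there is no net growth.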

Among the test systems are OVCAR-4 ovarian; NCI-H460 lung; CAKI-1 renal; HL-60(TB) leukemia; SR leukemia; NCI-H23 lung; T-47D breast; HOP-92 NSCLC; NCI-H226 lung; SNB-75 CNS.
Assay in all cases: NCI anticancer screen, dose series, 48 h

As to `CN1CCN(CCC=C2c3ccccc3Sc3ccc(S(=O)(=O)N(C)C)cc32)CC1`, the GI50 was 9.5 µM and 12.8 µM with OVCAR-4 ovarian; 3.51 µM and 3.47 µM in the assay on NCI-H460 lung; 3.45 µM and 5.41 µM with CAKI-1 renal; 2.38 µM and 2.41 µM in the assay on HL-60(TB) leukemia; 2.19 µM in the assay with SR leukemia; 12.2 µM and 15.7 µM with NCI-H23 lung. Further, the GI50 in the assay with T-47D breast was 1.52 µM and 3.85 µM; with HOP-92 NSCLC, 0.516 µM and 2.84 µM; with NCI-H226 lung it was 7.04 µM and 15.9 µM. Also, the TGI in the assay on OVCAR-4 ovarian was > 100 µM and 58.9 µM; in the assay on NCI-H460 lung it was 14.8 µM and 14 µM; with CAKI-1 renal, 20.6 µM and 23.9 µM; with HL-60(TB) leukemia, 4.65 µM; in the assay with SR leukemia it was 7.74 µM; in the assay on NCI-H23 lung it was 71 µM and 52.7 µM. Further, the TGI in the assay with T-47D breast was 3.42 µM and 16.7 µM; with HOP-92 NSCLC, 4.54 µM and 20.3 µM; in the assay on NCI-H226 lung, 26.9 µM and 33.7 µM.
With `CC(C)C1=CC2=C(C(=O)C1=O)C13CCCC(C)(C)C1CC2OC3=O` (centres undefined), the TGI in the assay with OVCAR-4 ovarian was 40.6 µM; with NCI-H460 lung, 71.9 µM; with CAKI-1 renal, 44.1 µM; with HL-60(TB) leukemia it was 36.3 µM; in the assay with NCI-H23 lung, 61.7 µM; in the assay on SNB-75 CNS, 63.8 µM. Besides, the TGI with T-47D breast came out at 48.4 µM; in the assay with HOP-92 NSCLC, 37.3 µM; in the assay with NCI-H226 lung, 49.2 µM.
Consider `CC1(C)C(CC(=O)O)CCCC1CC(=O)O` (centres undefined), for which the TGI in the assay on OVCAR-4 ovarian, in the assay on CAKI-1 renal, with SR leukemia, with NCI-H23 lung, with T-47D breast and in the assay with NCI-H226 lung was more than 100 µM in each case.
In the case of `C[C@]12CC[C@H]3[C@@H](CC[C@]4(O)C[C@@H](O[C@@H]5O[C@H](CO)[C@@H](O[C@@H]6OC[C@@H](O)[C@H](O)[C@H]6O)[C@H](O)[C@H]5O)CC[C@]34C=O)[C@@]1(O)CC[C@@H]2C1=CC(=O)OC1`, the GI50 in the assay with OVCAR-4 ovarian is 0.91 µM; with NCI-H460 lung, 0.379 µM; with CAKI-1 renal, 0.886 µM; with HL-60(TB) leukemia, 1.12 µM; in the assay on SR leukemia it was 1.06 µM; in the assay on NCI-H23 lung, 0.839 µM. Besides, the GI50 was 1.15 µM in the assay on SNB-75 CNS, 1.55 µM with T-47D breast and 1.47 µM with NCI-H226 lung. The TGI was 2.8 µM with OVCAR-4 ovarian; 1.31 µM in the assay on NCI-H460 lung; 2.26 µM in the assay with CAKI-1 renal; 3.08 µM in the assay on HL-60(TB) leukemia; 3.27 µM in the assay with SR leukemia; 2.71 µM in the assay on NCI-H23 lung. The TGI in the assay with SNB-75 CNS came to 6.65 µM; in the assay on T-47D breast it was 7.77 µM; in the assay with NCI-H226 lung it was 3.69 µM.
Consider `Cc1c(Cl)c(C)c(Cl)c(O)c1Cl`, for which the TGI with OVCAR-4 ovarian was more than 100 µM; in the assay with NCI-H460 lung it was 65.8 µM; in the assay on CAKI-1 renal, 62.7 µM; in the assay with HL-60(TB) leukemia, 58.4 µM; in the assay on NCI-H23 lung, 94 µM; with SNB-75 CNS, more than 100 µM. For the same molecule, the TGI with T-47D breast is more than 100 µM; in the assay with HOP-92 NSCLC, 58 µM; in the assay with NCI-H226 lung, 63.3 µM.
For the molecule `CC/C(=C(/c1ccc(OCCN(C)C)cc1)c1ccc(OC(=O)CCCCCCCCC(=O)c2c(C)[nH]c(/C=C3\N=C(c4ccc[nH]4)C=C3OC)c2C)cc1)c1ccccc1`, the GI50 was 4.26 µM in the assay with NCI-H460 lung; 7 µM in the assay on CAKI-1 renal; 12.3 µM in the assay on HL-60(TB) leukemia; 4.1 µM with SR leukemia; 48.4 µM with NCI-H23 lung; 6.25 µM in the assay on SNB-75 CNS. In addition, the GI50 in the assay on T-47D breast is 3.56 µM; in the assay with NCI-H226 lung it was more than 100 µM. Further, the TGI in the assay with NCI-H460 lung, in the assay on CAKI-1 renal, in the assay with HL-60(TB) leukemia, in the assay with SR leukemia, in the assay with NCI-H23 lung and with SNB-75 CNS was more than 100 µM throughout. The TGI in the assay with T-47D breast and in the assay with NCI-H226 lung was more than 100 µM in each case.
As for `CCn1ncc(N=O)c1N`, the TGI in the assay with NCI-H460 lung, in the assay with CAKI-1 renal, in the assay with SR leukemia, in the assay with NCI-H23 lung, with SNB-75 CNS and in the assay with T-47D breast was more than 100 µM in each case. Besides, the GI50 with SNB-75 CNS is 22 µM and 58 µM.
As for `O=C(O)c1ccc(/C=N/N=C2c3ccccc3-c3ccccc32)cc1`, the TGI in the assay on OVCAR-4 ovarian was more than 100 µM; in the assay with NCI-H460 lung, more than 100 µM; in the assay on CAKI-1 renal it was 93.3 µM; in the assay on HL-60(TB) leukemia, more than 100 µM; with SR leukemia, more than 100 µM; in the assay with NCI-H23 lung, more than 100 µM. For the same molecule, the figures for the TGI in the assay with T-47D breast, in the assay with HOP-92 NSCLC and in the assay on NCI-H226 lung were more than 100 µM, more than 100 µM and 45.5 µM, respectively.
Take `CO/C(=C1/NC(=O)C(Cc2ccc(O)c(Br)c2)N(C)C(=O)C(C)NC(=O)CCC/C=C(\C)CCC(C)OC1=O)c1ccccc1` (centres undefined): the GI50 with OVCAR-4 ovarian is 0.0225 µM; with CAKI-1 renal it was 0.0196 µM; in the assay on HL-60(TB) leukemia, 0.033 µM; in the assay with NCI-H23 lung, 0.106 µM; in the assay on T-47D breast it was 0.0354 µM; in the assay with HOP-92 NSCLC, 0.0246 µM. In addition, in the assay with NCI-H226 lung, the GI50 was 0.365 µM. The TGI in the assay with NCI-H460 lung was 3.49 µM; with CAKI-1 renal it was 0.0509 µM; with HL-60(TB) leukemia, 0.999 µM; in the assay with SR leukemia it was more than 100 µM; with NCI-H23 lung, 22.4 µM; with T-47D breast it was 1.34 µM. For the same molecule, the TGI in the assay on HOP-92 NSCLC came out at 0.0612 µM; with NCI-H226 lung it was 3.17 µM.
As for `CC#CC#C/C(=C/C=CC(=O)OC)SC`, the TGI in the assay on OVCAR-4 ovarian, in the assay with NCI-H460 lung, in the assay on CAKI-1 renal, in the assay on HL-60(TB) leukemia, in the assay on SNB-75 CNS and with T-47D breast was more than 100 µM each time. Also, the TGI with HOP-92 NSCLC and in the assay with NCI-H226 lung was more than 100 µM throughout.
On to `C=C(Br)COc1ccc2c(C)cc(=O)oc2c1`, for which the TGI in the assay on OVCAR-4 ovarian, with NCI-H460 lung, with CAKI-1 renal, in the assay on HL-60(TB) leukemia, in the assay on SR leukemia and with NCI-H23 lung was more than 100 µM each time. In addition, the TGI with T-47D breast was 87.2 µM; with HOP-92 NSCLC it was more than 100 µM; with NCI-H226 lung it was more than 100 µM.
